Key:
[1] = Drug uptake in human MCF7 cells expressing sigma 1 receptor assessed as increase in fluorescence intensity in presence of (+)-pentazocine incubated at 1 to 10000 nM for 45 mins by flow cytometric analysis; assay type: ADME, cell-based; conditions: mcf7, 0.75 h, 10 µM, dose 1-10000 nM
[2] = biological target: T1, Sigma intracellular receptor 2 (Homo sapiens, UniProt Q5BJF2); assay: Binding affinity to sigma 2 receptor in human MCF7 cells assessed as increase in fluorescent intensity pretreated with (+)-pentazocine for 60 mins followed by compound addition incubated for 45 mins by flow cytometric analysis; assay type: cell-based; conditions: dose 0.01-1 µM
T1 sequence (Q5BJF2 whole entry): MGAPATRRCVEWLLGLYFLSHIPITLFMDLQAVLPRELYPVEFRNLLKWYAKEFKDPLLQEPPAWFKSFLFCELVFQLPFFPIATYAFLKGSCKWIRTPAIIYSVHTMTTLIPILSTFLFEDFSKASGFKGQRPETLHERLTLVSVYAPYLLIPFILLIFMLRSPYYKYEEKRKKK

[3] = Drug accumulation in human MCF7 cells assessed as increase in mean fluorescence intensity pretreated with (+)-pentazocine for 60 mins followed by compound addition incubated for 45 mins by flow cytometric analysis; assay type: ADME, cell-based; conditions: mcf7, 0.75 h, dose 0.01-1 µM
[4] = Drug accumulation in human MCF7 TMEM97 knock out cells assessed as increase in mean fluorescence intensity pretreated with (+)-pentazocine for 60 mins followed by compound addition incubated for 45 mins by flow cytometric analysis; assay type: ADME, cell-based; conditions: mcf7, 0.75 h, dose 0.01-1 µM
[5] = biological target: T2, Sigma intracellular receptor 2 (Rattus norvegicus, UniProt Q5U3Y7); assay: Displacement of [3H]DTG from sigma 2 receptor in Wistar Han rat liver membrane assessed as inhibition constant by competitive binding assay; assay type: cell membranes
T2 sequence (Q5U3Y7 whole entry): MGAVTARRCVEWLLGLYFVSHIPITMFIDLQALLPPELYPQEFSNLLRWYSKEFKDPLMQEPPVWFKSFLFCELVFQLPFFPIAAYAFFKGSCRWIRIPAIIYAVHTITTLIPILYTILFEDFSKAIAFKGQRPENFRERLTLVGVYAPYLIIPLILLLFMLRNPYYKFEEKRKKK

[6] = biological target: T3, Sigma non-opioid intracellular receptor 1 (Cavia porcellus, UniProt Q60492); assay: Displacement of [3H](+)-pentazocine from sigma 1 receptor in guinea pig brain membranes assessed as inhibition constant by competitive binding assay; assay type: cell membranes, Membrane
T3 sequence (Q60492 whole entry): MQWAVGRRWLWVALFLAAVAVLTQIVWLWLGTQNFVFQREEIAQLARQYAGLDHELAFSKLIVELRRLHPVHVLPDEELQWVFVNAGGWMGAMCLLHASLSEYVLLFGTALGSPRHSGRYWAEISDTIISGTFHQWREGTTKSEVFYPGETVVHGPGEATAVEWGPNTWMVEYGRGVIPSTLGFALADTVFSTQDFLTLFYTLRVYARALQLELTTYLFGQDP

[7] = biological target: T3, Sigma non-opioid intracellular receptor 1; assay: Displacement of [3H](+)-pentazocine from sigma 1 receptor in guinea pig brain membranes assessed as inhibition constant by Wallac 1450 MicroBeta liquid scintillation counter; assay type: cell membranes, Membrane
[8] = biological target: T2, Sigma intracellular receptor 2; assay: Displacement of [3H]RHM-1 from sigma 2 receptor in Wistar Han rat liver membrane assessed as inhibition constant by competitive binding assay; assay type: cell membranes
[9] = biological target: T1, Sigma intracellular receptor 2; assay: Binding affinity to sigma 2 receptor (unknown origin) assessed as inhibition constant
[10] = biological target: Sigma non-opioid intracellular receptor 1 (Homo sapiens, UniProt Q99720); assay: Binding affinity to sigma 1 receptor (unknown origin) assessed as inhibition constant
Chain of Sigma non-opioid intracellular receptor 1 (Homo sapiens, UniProt Q99720) (Q99720 whole entry): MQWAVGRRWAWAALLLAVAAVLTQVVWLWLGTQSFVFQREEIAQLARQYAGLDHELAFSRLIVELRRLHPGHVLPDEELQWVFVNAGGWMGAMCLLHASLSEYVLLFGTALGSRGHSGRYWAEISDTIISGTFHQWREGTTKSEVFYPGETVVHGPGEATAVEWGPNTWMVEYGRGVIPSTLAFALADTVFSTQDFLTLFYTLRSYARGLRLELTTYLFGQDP

C[N+]1=C(/C=C/C=C/C=C2\N(CCCCCC(=O)NCCCCCCn3cc(CCCCN4CCC5(CC4)OCc4ccccc45)c4ccccc43)c3ccccc3C2(C)C)C(C)(C)c2ccccc21.[I-]
Drug uptake [1]: Not Active
Activity [2]: Dose-Dependent Effect
Drug uptake [3]: Dose-Dependent Effect
Drug uptake [4]: Dose-Dependent Effect

COc1cc2c(cc1OC)CN(CCCN1CCc3c(OCCCCCCN4C(=O)c5ccc(N(C)C)cc5C4=O)cccc3C1=O)CC2
Ki [5]: 10.2 nM
Ki [6]: > 5000 nM

COc1ccc(C)cc1NC(=O)OC1C[C@H]2CCC[C@@H](C1)N2CCCCCCCCCCS(=O)(=O)c1cccc2c(N(C)C)cccc12 (some centres not stated)
Ki [7]: 1.05 nM
Ki [8]: 14 nM

C[N+]1=C(/C=C/C=C/C=C2/N(CCCCCC(=O)Nc3ccc4ccn(CCCCN5CCC6(CC5)OCc5ccccc56)c4c3)c3ccccc3C2(C)C)C(C)(C)c2ccccc21.[I-]
Drug uptake [3]: Dose-Dependent Effect

CC1CCN(CCCCc2cccc3cc(OCCCCCCN4C(=O)c5ccc(N(C)C)cc5C4=O)ccc23)CC1
Ki [9]: 17.9 nM
Ki [10]: 0.03 nM

CN(C)c1ccc2c(c1)C(=O)N(Oc1cccc3c1CCCC3CCCN1CCN(C3CCCCC3)CC1)C2=O (configuration not stated)
Ki [9]: 6.9 nM
